Values quoted from earlier work in patent US20230029485A1 (priority 2021, published 2023).

Key:
Conditions in all cases: in vivo
[1] = test system: metastatic colorectal cancer
SARS-CoV-2 [2] = test system: SARS-CoV-2
SARS-CoV-2 [3] = test system: SARS-CoV-2; remark: listed apart in the source

## O=c1[nH]cc(F)c(=O)[nH]1 [5-fluorouracil]
[1]
  objective response rate: around 20%

## CCN(CCO)CCCC(C)Nc1ccnc2cc(Cl)ccc12 (stereo not shown) [HCQ, hydroxychloroquine]
SARS-CoV-2 [2]
  developed QT prolongation: nine
  good clinical outcome and a virological cure: 91.7%

## CCC(CC)COC(=O)[C@H](C)N[P@](=O)(OC[C@H]1O[C@@](C#N)(c2ccc3c(N)ncnn23)[C@H](O)[C@@H]1O)Oc1ccccc1 [RDV, Remdesivir]
SARS-CoV-2 [3]
  adverse events, share of patients: 60.3%
